Measurements: PMC6028563, “Probing Substituents in the 1- and 3-Position: Tetrahydropyrazino-Annelated Water-Soluble Xanthine Derivatives as Multi-Target Drugs With Potent Adenosine Receptor Antagonistic Activity” (Frontiers in Chemistry, 2018)

What was measured:
[1] = target: T1, human A3 AR (Homo sapiens, UniProt P0DMS8); assay: Radioligand binding assay at human A3 AR vs. [^3H]PSB-11; details: for Ki: CHO cell membranes, n = 2 (n = 3 where marked a), read-out: Ki ± SEM, A3 vs. [^3H]PSB-11; for inhibition at 10 µM: at 10,000 nM, read-out: % inhibition of radioligand binding at indicated concentration, A3 vs. [^3H]PSB-11
T1 construct: expressed in transfected cells; host or cells: CHO cells
T1 sequence (P0DMS8 1-318): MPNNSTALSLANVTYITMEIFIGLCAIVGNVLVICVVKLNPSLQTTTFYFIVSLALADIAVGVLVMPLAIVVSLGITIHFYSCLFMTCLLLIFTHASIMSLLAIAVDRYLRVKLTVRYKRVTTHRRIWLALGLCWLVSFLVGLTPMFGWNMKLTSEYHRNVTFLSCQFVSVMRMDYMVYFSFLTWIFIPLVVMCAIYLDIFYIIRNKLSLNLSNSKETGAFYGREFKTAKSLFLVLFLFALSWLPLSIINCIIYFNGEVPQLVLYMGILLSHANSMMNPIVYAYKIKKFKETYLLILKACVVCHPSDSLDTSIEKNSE
Summary of the method: (§1)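 Competition binding; rat A1: brain cortex membranes; rat A2A: brain striatum membranes; human A1/A2A/A2B/A3: membranes from CHO cells each expressing one human subtype. Affinity only, no functional testing.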

[2] = target: T2, recombinant human MAO-B (Homo sapiens, UniProt P27338); assay: Monoamine oxidase assay (Amplex Red), MAO-B; type: biochemical; details: for IC50: n = 3, read-out: IC50 ± SEM, Human MAO-B; for inhibition at 10 µM: at 10,000 nM (10 μM), read-out: % inhibition at indicated concentration, Human MAO-B
T2 construct: purchased Sigma-Aldrich M7441; host or cells: baculovirus-infected insect cells
T2 sequence (P27338 1-520): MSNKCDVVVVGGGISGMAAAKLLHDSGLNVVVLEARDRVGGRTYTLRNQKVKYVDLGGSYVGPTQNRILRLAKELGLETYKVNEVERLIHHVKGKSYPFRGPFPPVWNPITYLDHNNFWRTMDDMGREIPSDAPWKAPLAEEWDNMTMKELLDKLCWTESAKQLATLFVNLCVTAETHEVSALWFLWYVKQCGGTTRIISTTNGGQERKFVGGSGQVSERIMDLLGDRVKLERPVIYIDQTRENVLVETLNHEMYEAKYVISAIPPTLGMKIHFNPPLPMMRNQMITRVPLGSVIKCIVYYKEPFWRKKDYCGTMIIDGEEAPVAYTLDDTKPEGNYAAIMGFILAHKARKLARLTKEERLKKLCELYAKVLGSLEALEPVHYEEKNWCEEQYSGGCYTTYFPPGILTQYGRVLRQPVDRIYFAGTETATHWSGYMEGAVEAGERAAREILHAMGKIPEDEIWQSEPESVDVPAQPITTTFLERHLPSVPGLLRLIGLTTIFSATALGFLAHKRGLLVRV
Summary of the method: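 Inhibition was measured with an Amplex Red monoamine oxidase assay, using human MAO-A and MAO-B produced recombinantly in baculovirus-infected insect cells. For rat MAO-B, liver mitochondria-enriched fractions from male Sprague Dawley rats served as enzyme source.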

[3] = target: T3, rat A1 AR (Rattus norvegicus, UniProt P25099); assay: Radioligand binding assay at rat A1 AR (rat brain cortex) vs. [^3H]CCPA; details: rat (r); for Ki: rat brain cortex, n = 3
T3 construct: A1 ARs of rat brain cortical membrane; from tissue; host or cells: rat brain cortex membranes
T3 sequence (P25099 1-326): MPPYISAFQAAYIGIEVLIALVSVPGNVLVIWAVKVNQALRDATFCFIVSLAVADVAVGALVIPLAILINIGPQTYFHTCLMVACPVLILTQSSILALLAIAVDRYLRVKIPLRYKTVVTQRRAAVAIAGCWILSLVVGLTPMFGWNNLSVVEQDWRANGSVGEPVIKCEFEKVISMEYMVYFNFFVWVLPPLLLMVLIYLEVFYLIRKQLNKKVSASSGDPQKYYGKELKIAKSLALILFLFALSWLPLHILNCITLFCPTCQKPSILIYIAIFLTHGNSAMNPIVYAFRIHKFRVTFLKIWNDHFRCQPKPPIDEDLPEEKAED
Summary of the method: as §1

[4] = target: T4, human A2B AR (Homo sapiens, UniProt P29275); assay: Radioligand binding assay at human A2B AR vs. [^3H]PSB-603; details: for Ki: CHO cell membranes, n = 2 (n = 3 where marked a), read-out: Ki ± SEM, A2B vs. [^3H]PSB-603; for inhibition at 1 µM: at 1,000 nM; for inhibition at 1 µM / inhibition at 0.1 µM: read-out: % inhibition of radioligand binding at indicated concentration, A2B vs. [^3H]PSB-603; for inhibition at 0.1 µM: at 100 nM
T4 construct: expressed in transfected cells; host or cells: CHO cells
T4 sequence (P29275 1-332): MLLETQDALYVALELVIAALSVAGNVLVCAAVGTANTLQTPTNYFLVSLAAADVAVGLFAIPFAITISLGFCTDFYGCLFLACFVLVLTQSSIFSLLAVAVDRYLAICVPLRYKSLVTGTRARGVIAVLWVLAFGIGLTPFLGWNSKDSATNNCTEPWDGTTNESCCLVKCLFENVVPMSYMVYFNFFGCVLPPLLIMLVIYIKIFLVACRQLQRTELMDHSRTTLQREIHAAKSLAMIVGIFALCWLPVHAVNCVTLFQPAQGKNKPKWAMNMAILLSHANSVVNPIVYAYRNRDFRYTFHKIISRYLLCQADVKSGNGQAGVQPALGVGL
Summary of the method: as §1

[5] = target: T5, human A1 AR (Homo sapiens, UniProt P30542); assay: Radioligand binding assay at human A1 AR vs. [^3H]CCPA; details: human (h); CHO cell membranes; n = 3
T5 construct: expressed in transfected cells; host or cells: CHO cells
T5 sequence (P30542 1-326): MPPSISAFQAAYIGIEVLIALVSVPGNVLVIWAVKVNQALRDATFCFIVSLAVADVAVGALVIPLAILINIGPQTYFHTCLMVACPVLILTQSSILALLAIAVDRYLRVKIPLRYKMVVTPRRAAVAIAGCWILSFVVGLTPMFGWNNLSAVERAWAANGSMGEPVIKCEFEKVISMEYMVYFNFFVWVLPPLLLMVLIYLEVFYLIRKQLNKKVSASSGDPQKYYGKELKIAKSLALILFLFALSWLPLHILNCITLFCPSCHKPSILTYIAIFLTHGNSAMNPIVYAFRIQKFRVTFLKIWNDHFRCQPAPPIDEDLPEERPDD
Summary of the method: as §1

Ki [1]	IC50 [2]	Ki [3]	Ki [4]	inhibition at 1 µM [4]	Ki [5]	inhibition at 10 µM [1]	inhibition at 10 µM [2]	inhibition at 0.1 µM [4]	inhibition at 1.5 µM ([3]; read-out: % inhibition of radioligand binding at indicated concentration, A1 vs. [^3H]CCPA, at 1,500 nM)	SMILES
5630 nM	679 ± 17 nM	292 ± 21 nM	> 1000 nM	23%	967 ± 211 nM					C#CCn1c(=O)c2c(nc3n2CCN(Cc2ccc(Cl)c(Cl)c2)C3)n(C)c1=O [Compound 19a, 8-(3,4-dichlorobenzyl)-1-methyl-3-propargyl-6,7,8,9-tetrahydropyrazino[2,1-f]purine-2,4(1H,3H)-dione]
> 10000 nM	> 10000 nM	30 ± 5.7 nM	> 1000 nM	27%	84.8 ± 2.4 nM	36%	10%			CCn1c(=O)c2c(nc3n2CCN(Cc2cccc(C(F)(F)F)c2)C3)n(CC)c1=O [Compound 15g, 1,3-diethyl-8-(3-(trifluoromethyl)benzyl)-6,7,8,9-tetrahydropyrazino[2,1-f]purine-2,4(1H,3H)-dione]
> 10000 nM	≥ 10000 nM	59.4 ± 7.7 nM	> 100 nM		85.3 ± 5.5 nM	24%	48%	15%		CCn1c(=O)c2c(nc3n2CCN(Cc2cccc(F)c2)C3)n(C)c1=O [Compound 14g, 3-ethyl-8-(3-fluorobenzyl)-1-methyl-6,7,8,9-tetrahydropyrazino[2,1-f]purine-2,4(1H,3H)-dione]
> 10000 nM	3980 nM	36.9 ± 6.1 nM	> 1000 nM	2%	391 ± 77 nM	42%				CCn1c(=O)c2c(nc3n2CCN(Cc2cc(Cl)ccc2Cl)C3)n(C)c1=O [Compound 14j, 8-(2,5-dichlorobenzyl)-3-ethyl-1-dimethyl-6,7,8,9-tetrahydropyrazino[2,1-f]purine-2,4(1H,3H)-dione]
4720 nM	< 10000 nM	89.6 ± 21.4 nM	> 1000 nM	23%	207 ± 48 nM		66%			CCn1c(=O)c2c(nc3n2CCN(Cc2cc(Cl)cc(Cl)c2)C3)n(CC)c1=O [Compound 15m, 8-(3,5-dichlorobenzyl)-1,3-diethyl-6,7,8,9-tetrahydropyrazino[2,1-f]purine-2,4(1H,3H)-dione]
> 10000 nM	≤ 10000 nM	19.6 ± 3 nM	> 1000 nM	23%	22.6 ± 2.7 nM	38%	54%			CCn1c(=O)c2c(nc3n2CCN(Cc2cc(C(F)(F)F)ccc2Cl)C3)n(CC)c1=O [Compound 15n, 8-(2-chloro-5-(trifluoromethyl)benzyl)-1,3-diethyl-6,7,8,9-tetrahydropyrazino[2,1-f]purine-2,4(1H,3H)-dione]
> 10000 nM	> 10000 nM	28.8 ± 1.5 nM	> 1000 nM	9%	70.7 ± 12.3 nM	39%	34%			CCn1c(=O)c2c(nc3n2CCN(Cc2cccc(Br)c2)C3)n(C)c1=O [Compound 14b, 8-(3-bromobenzyl)-3-ethyl-1-methyl-6,7,8,9-tetrahydropyrazino[2,1-f]purine-2,4(1H,3H)-dione]
> 10000 nM	3070 nM	36 ± 18.4 nM	> 1000 nM	11%	116 ± 27 nM	39%				CCn1c(=O)c2c(nc3n2CCN(Cc2cc(Br)ccc2F)C3)n(C)c1=O [Compound 14o, 8-(5-bromo-2-fluorobenzyl)-3-ethyl-1-methyl-6,7,8,9-tetrahydropyrazino[2,1-f]purine-2,4(1H,3H)-dione]
> 10000 nM	3690 nM	584 ± 8 nM	> 100 nM		1130 nM	26%		2%		Cn1c(=O)c2c(nc3n2CCN(Cc2ccc(Cl)c(Cl)c2)C3)n(C2CC2)c1=O [Compound 17, 8-(3,4-dichlorobenzyl)-1-cyclopropyl-3-methyl-6,7,8,9-tetrahydropyrazino[2,1-f]purine-2,4(1H,3H)-dione]
> 10000 nM	524 ± 26 nM	> 1500 nM	> 1000 nM	23%	1190 nM	14%			25%	CCn1c(=O)c2c(nc3n2CCN(Cc2cc(F)c(F)c(F)c2)C3)n(CC)c1=O [Compound 15r, 1,3-diethyl-8-(3,4,5-trifluorobenzyl)-6,7,8,9-tetrahydropyrazino[2,1-f]purine-2,4(1H,3H)-dione]
